Source: PMC11313180 (International Journal of Molecular Sciences, 2024)
Read-outs that look alike come from different tables or passages of the source.

Legend:
MCF-7 [1] = test: MTT cell viability assay, MCF-7; type: cell-based, human; conditions: for IC50: Homo sapiens
Protocol: (§1) MTT assays were performed as previously described. […] After incubation time, medium was replaced by MTT (solution of 5 mg/mL 3-(4,5-dimethylthiazol-2-yl)-2,5-diphenyl-tetrazoliumbromidin in phosphate buffered saline, Serva, Heidelberg, Germany).

T47D [2] = test: MTT cell viability assay, T47D; type: cell-based, human; conditions: for IC50: Homo sapiens, T47D
Protocol: as §1

MDA-MB-231 = test: MTT cell viability assay, MDA-MB-231; type: cell-based, human; conditions: for IC50: Homo sapiens
Protocol: MTT assays were performed as previously described. Cell numbers plated differed depending on each incubation time: MDA-MB-231 5000 c/w, MCF-7 5000 c/w (72 h) and 3000 c/w (120 h), T-47D 10,000 c/w (72 h) and 5000 c/w /120 h). After incubation time, medium was replaced by MTT (solution of 5 mg/mL 3-(4,5-dimethylthiazol-2-yl)-2,5-diphenyl-tetrazoliumbromidin in phosphate buffered saline, Serva, Heidelberg, Germany). After 10 min (MCF-7), 20 min (MDA-MB-231), and 30 min (T47D) and dissolving in DMSO (VWR, Langenfeld, Germany), absorbance was measured at 544 nm and 690 nm in a FLUOstar microplate reader (BMG LabTech, Offenburg, Germany).

MCF-7 [3] = test: Cell proliferation by counting Hoechst 33342-stained nuclei, MCF-7; type: cell-based, human; conditions: 1 µM, 72 h
Protocol: (§2) Figure 3 Cell proliferation of MCF-7 (a) and T47D cells (b) measured via Hoechst 33342 staining. […] Shown is one representative experiment out of a series of at least three experiments each performed with 3 replicates. Data are mean ± SD. Statistical comparison was performed using a t-test. Levels of significance: ** (p ≤ 0.01); **** (p ≤ 0.0001). Exe = exemestane. (R)-LA = (R)-α-lipoic acid.

T47D [4] = test: Cell proliferation by counting Hoechst 33342-stained nuclei, T47D; type: cell-based, human; conditions: 1 µM, 72 h
Protocol: as §2

MCF-7 [5] = test: Long-term (10 days) live/dead proliferation assay, calcein AM and Hoechst 33342, MCF-7; type: cell-based, human; conditions: 1 µM exemestane, 1 mM (R)-α-lipoic acid
Protocol: (§3) Cells were seeded on day one in 96-well plates. […] Then, cells were stained with calcein AM (Millipore Corporation, Billerica, MA, USA) and Hoechst 33342 (Tocris Bioscience, Bristol, UK) for 30 min and fluorescence images monitored by Leica DMi8 Thunder Imager (Leica Microsystems CMS GmbH, Wetzlar, Germany). Five images per well were monitored randomly. Calcein AM- and Hoechst 33342-stained area of the images (i.e., live proliferating cells) were evaluated.

T47D [6] = test: Long-term (10 days) live/dead proliferation assay, calcein AM and Hoechst 33342, T47D; type: cell-based, human; conditions: 1 µM exemestane, 1 mM (R)-α-lipoic acid
Protocol: as §3

[7] = tested on: caspase 3/7 in MCF-7 cells; test: Caspase 3/7 activation assay, MCF-7; type: cell-based, human; conditions: 24 h; 1 µM exemestane, 0.5 mM or 1 mM (R)-α-lipoic acid
Protocol: (§4) To analyze the compound-induced activation of capases 3 and 7, the CellEvent caspase 3/7 green detection reagent (Thermo Scientific, Wesel, Germany) was used according to the manufacturer’s instructions. […] After 24 h incubation, medium was removed, and cells were stained with 50 µL of CellEvent caspase 3/7 green detection reagent (2 µM in PBS supplemented with 5% heat-inactivated FBS). Cells were incubated for 30 min at 37 °C in a humidified incubator before imaging by using the Thermo Fisher ArrayScan XTI high content screening (HCS) system with a 10× magnification (Thermo Scientific). Hoechst 33342 was added for nuclei staining.

[8] = tested on: caspase 3/7 in T47D cells; test: Caspase 3/7 activation assay, T47D; type: cell-based, human; conditions: 24 h; 1 µM exemestane, 0.5 mM or 1 mM (R)-α-lipoic acid
Protocol: as §4

MCF-7 [9] = test: Immunoblotting, MCF-7; type: cell-based, human; conditions: 48 h; 1 mM (R)-α-lipoic acid, 1 µM exemestane
Protocol: (§5) A quantity of 20 or 40 µg of total protein as well as, from PageRuler Prestained Protein Ladder, 10–180 kDA (Thermo Scientific, Wesel, Germany), were resolved by SDS-Page (12% polyacrylamide gel) and transferred to polyvinylidene fluoride membrane (Millipore Corporation, Billerica, MA, USA). Blots were incubated with primary antibodies against acetylated a -tubulin (Cat. No. sc-23950), a -tubulin (Cat. No. sc-8035) (Santa Cruz Biotechnology, Heidelberg, Germany), acetyl histone h3 (Cat. No. 39140) and histone H3 (Cat. No. NB100-1669), ß-actine (Cat. No. sc-47778), p21 (AF1047), c-myk (Cat. No. MAB3696), APAF1 (Cat. No. MAB868), BIM (Cat. No. NBP1-76936), FOXO1 (Cat. No. C29H4), BCL-2 (Cat. No. AF810), and survivin (Cat. No. AF886). After another one-hour incubation with the appropriate HRP-conjugated secondary antibody, proteins were visualized by Intas Imager (Intas, Göttingen, Germany) using luminol reagent (Santa Cruz Biotechnology, Heidelberg, Germany).

T47D [10] = test: Immunoblotting, T47D; type: cell-based, human; conditions: 48 h; 1 mM (R)-α-lipoic acid, 1 µM exemestane
Protocol: as §5

MCF-7 cells = tested on: MCF-7 cells; design: method as in PMID 25738757; conditions: ref [30]; read-out: IC50 in MCF-7 cells, literature; cited from earlier work

IC50 (MCF-7 [1]; MCF7, 72 h, read-out: IC50 MCF-7, 72 h MTT assay): 29.1 ± 1.3 µM | IC50 (MCF-7 [1]; MCF7, 72 h, read-out: IC50 of exemestane, MCF-7 (Figure 2a)): 42.6 µM | IC50 (MCF-7 [1]; MCF7, 120 h, read-out: IC50 of exemestane, MCF-7 (Figure 4a)): 16.9 µM | IC50 (MCF-7 [1]; MCF7, 120 h, IC50 ± SEM, read-out: IC50 MCF-7, 120 h MTT assay): 16.1 ± 0.84 µM | IC50 (T47D [2]; 72 h, read-out: IC50 T-47D, 72 h MTT assay): 50.6 ± 2.04 µM | IC50 (T47D [2]; 72 h, read-out: IC50 of exemestane, T-47D (Figure 2b)): 39.2 µM | IC50 (T47D [2]; 120 h, read-out: IC50 of exemestane, T-47D (Figure 4b)): 24.7 µM | IC50 (T47D [2]; 120 h, IC50 ± SEM, read-out: IC50 T-47D, 120 h MTT assay): 28.7 ± 0.75 µM | IC50 (MDA-MB-231; MDA-MB-231, 72 h, read-out: IC50 MDA-MB-231, 72 h MTT assay): 89.4 ± 2.86 µM | IC50 (MDA-MB-231; MDA-MB-231, 120 h, IC50 ± SEM, read-out: IC50 MDA-MB-231, 120 h MTT assay): 53.3 ± 3.62 µM
Structure (SMILES): C=C1C[C@@H]2[C@H](CC[C@]3(C)C(=O)CC[C@@H]23)[C@@]2(C)C=CC(=O)C=C12 [exemestane]
inhibition of cell viability, MCF-7 (MCF-7 [1]; 1 µM alone, 120 h MTT): 10.2% | increase in potency by prolongation of incubation time, MCF-7 (MCF-7 [1]; 120 h versus 72 h MTT): 1.8 fold | inhibition of cell viability, T47D (T47D [2]; 1 µM alone, 120 h MTT): no | increase in potency by prolongation of incubation time, T47D (T47D [2]; 120 h versus 72 h MTT): 1.8 fold | less potent in MDA-MB-231 compared to MCF-7 (MDA-MB-231; 72 h MTT IC50 ratio): 3 fold | less potent in MDA-MB-231 compared to T47D (MDA-MB-231; 72 h MTT IC50 ratio): 1.8 fold | increase in potency by prolongation of incubation time, MDA-MB-231 (MDA-MB-231; 120 h versus 72 h MTT): 1.7 fold | decrease of the number of nuclei, MCF-7 (MCF-7 [3]): around 37% | decrease of the number of nuclei, T47D (T47D [4]): around 37% | proliferation and doubling time over 10 days, MCF-7 (MCF-7 [5]): difference between the untreated control and 1 µM exemestane is small | proliferation and doubling time over 10 days, T47D (T47D [6]): doubling time was not different between exemestane treatment and untreated condition | caspase 3/7 activation, MCF-7 [7]: no caspase 3/7 activation | caspase 3/7 activation, T47D [8]: no caspase 3/7 activation | expression of survivin and c-myk, MCF-7 (MCF-7 [9]): not affected | expression of survivin and c-myk, T47D (T47D [10]): not affected | IC50 (MCF-7 cells): 30 µM
